Measurements as given in patent US4975433A, “Aminomethyl derivatives of biologically active substances and enhanced delivery thereof across topical membranes” (priority 1989, dated 1990).
Converted amounts (≈) assume the structure as drawn. “And” between values parts separate entries of the source, which are not always exact repeats. Identical values can stand only once. Marks after values point to notes of the source that are not given here. Blank lines part the entries; values can stand above or below the molecule they belong to.

Key:
[1] = stability of the bases in water, isopropyl myristate and moisture (NMR, TLC); assay type: physicochemical; details: for qualitative order of stability to atmospheric moisture: IPM solution, NMR; for stability in IPM: 24 hours after sonication for 3 hours; for degraded at 48 h: isopropyl myristate, atmospheric moisture, room temperature, two days, read-out: decomposition of base prodrugs in IPM filtrates
Description: All the suspensions or solutions were prepared by sonicating mixtures of the drug or prodrugs in the appropriate solvent in sealed flasks for 3 hr. The sealed solutions or suspensions that resulted were allowed to sit at room temperature for 24 hr, then they were briefly (15 sec.) vortexed and 0.50 ml samples were removed and applied to the membranes (area=4.9 cm^2). After an additional 24 hr the remaining sealed suspensions of the prodrugs were filtered, the filtrates and residues were analyzed by inspection of their NMR spectra and TLC to determine if any decomposition of the prodrugs had taken place (none had), and the filtrates were analyzed by UV spectroscopy to determine if the amount of prodrug still in solution corresponded to the solubilities determined in separate experiments (they did). The filtrates were analyzed neat while the residues were dissolved in CDCl3 and the spectra were analyzed for the appearance of the C8 ---H absorption of theophylline at δ7.77 and the C6 ---H absorption of 5-FU at δ7.7. TLC analyses were run using ether as the eluents. The remaining suspensions of the parent drugs were also filtered and the filtrates were analyzed by UV spectroscopy to determine if the amount of drug still in solution corresponded to the solubilities determined in separate experiments (they did).
The derivatives are not stable in the presence of water. […] NMR experiments also supported the low stability of the derivatives in water. Solutions of the bases were prepared in dry DMSO-d6 and then D2 O was added stepwise to the solutions. […] Similar, decomposition of the bases was also observed in other protic solvents such as methanol and propylene glycol.
On the other hand, the stability of the bases in IPM was variable.
When the IPM filtrates, which were used to determine the IPM solubilities of II and III were exposed to atmospheric moisture at room temperature for two days, 50-80% decomposition of the base prodrugs in solution occurred and precipitation of theophylline resulted as determined by analysis of NMR spectra of the solutions and precipitates. The IPM solutions of the other bases eventually decomposed 1-10% upon prolonged exposure (two weeks) to atmospheric moisture. Although no quantitative data were determined, the qualitative order of stability of the theophylline bases to exposure to atmospheric moisture in IMP solution was V=VI>>IV>III>II,as determined by analysis of NMR spectra of their IPM solutions and precipitates from IPM solutions.

[2] = solubilities of prodrugs and parent drugs in selected solvents (Example 8); details: for trend in IPM solubility: NMR of neat filtrates, UV
[3] = half-lives of hydrolysis of cytosine and 5-fluorocytosine derivatives in phosphate buffer; details: for half-life: phosphate buffer; for pH dependence of hydrolysis rate: basic pH
[4] = lipid and aqueous solubilities of 5-FC and its derivatives; assay type: physicochemical; details: for solubility / Solubility, water: distilled water (pH 5.5), approximate, decomposing; for solubility at 48 h / Solubility, IPM: isopropyl myristate; for solubility at 48 h: organic solvent or mixture, read-out: Solubility, IPM; for Solubility, IPM: 2880 min; for IPM solubility relative to other compound: XIV vs 5-FC molar basis, XIIb vs XIIa
[5] = mouse; for Kp, initial phase: 100000 uM
Description: The diffusion experiments were performed in triplicate for each compound. Three female, hairless mice were sacrificed by cervical dislocation, and the entire dorsal skin removed by blunt dissection from the underlying tissues. The skins were secured with a rubber gasket to the diffusion cell, with the dermis in contact with the receptor phase. The receptor side of the cell was filled with isotonic phosphate buffer (pH 73 at 32°, 0.05 M, μ=0.15) with 1% formaldehyde added to inhibit microbial growth. The receptor phase was kept at a constant temperature of 32° and was stirred magnetically.
The donor phases were applied as suspensions (0.5 ml, 0.1 M) to the skin surface. […] Each sample was replaced by an equal amount of fresh buffer.
These last two steps were used to determine the mass balance. This part of the diffusion cell study is termed the first application.
Samples were obtained using the same schedule described above.
The slopes for each phase of the plotted lines were obtained by linear regression analysis (r>0.990); the slopes were then divided by the surface area of the diffusion cells (4.9 cm^2) to obtain a value for flux (J) in mg/cm^2 /h. The reported fluxes are the average flux of the three diffusion cells.

[6] = flux of theophylline in PG after first application of 5-IDC or prodrug (second application); assay type: in vitro ADME, hairless mice
Description: A suspension of theophylline in PG (Th/PG; 0.5 ml, 0.4M) was then applied to each diffusion cell. […] This phase of the diffusion cell experiment is labelled the second application.
The slopes for each phase of the plotted lines were obtained by linear regression analysis; the slopes were then divided by the surface area of the diffusion cells (4.9 cm^2) to obtain a value for flux (J) in mg/cm^2 /h. The reported fluxes are the average flux for the three cells.

[7] = lipid and aqueous solubilities of 5-IDC and its prodrugs; assay type: physicochemical; details: for solubility at 48 h: isopropyl myristate, organic solvent or mixture, read-out: Solubility, IPM
Description: The approximate aqueous solubilities were determined by the addition of 100 mg of solid to 1 ml distilled water (pH 5.5). Water was added until all the solid dissolved.
The lipid solubilities of 5-iodo-2'-deoxycytidine and its N-Mannich base prodrugs were determined in isopropyl myristate. Three suspensions of the drug or prodrugs were stirred for 48 hours and then filtered. The filtrates were then diluted with either methanol, for the parent drug or dry acetonitrile, for the N-Mannich base prodrugs. The concentration of compound in solution was determined by monitoring the UV absorption at 294 nm (ε=5.79×10^3 1/mole) for 5-IDC, 333 nm (ε=2.46×10^4) for the formamidine derivative and 296 nm for the derivatives. The aqueous solubilities were obtained as described above.

[8] = isopropyl myristate, organic solvent or mixture, Solubility, IPM, stirred at room temperature 24 hr
[9] = water, pH 7, water, Solubility, water (apparent)
[10] = pH 7.1, Half-life of hydrolysis, cytosine derivatives
[11] = isopropyl myristate, organic solvent or mixture, Solubility, IPM, suspensions sonicated for 3 hr
[12] = pH 7.1, Half-life of hydrolysis, 5-FC derivatives

- qualitative order of stability to atmospheric moisture [1]: V=VI>>IV>III>II
- degraded at 48 h [1]: 50 to 80%
- trend in IPM solubility ([2]; IPM): III>IV>VI>II>V
- solubility [2, 8]: 32500 µg/mL (≈ 122 mM)
- solubility [2, 9]: > 100000 µg/mL
Structure (SMILES): CCN(CC)Cn1cnc2c1c(=O)n(C)c(=O)n2C [III, 7-(Diethylamino)methyltheophylline]
- stability in IPM [1]: stable in solution but the IPM insoluble material was theophylline

- degraded at 48 h [1]: 50 to 80%
- solubility ([2]; isopropyl myristate, organic solvent or mixture, Solubility, IPM, both sonicated 3 hr and stirred 24 hr): 7600 µg/mL (≈ 32 mM)
- solubility [2, 9]: > 100000 µg/mL
Structure (SMILES): CN(C)Cn1cnc2c1c(=O)n(C)c(=O)n2C [II]

- qualitative order of stability to atmospheric moisture [1]: V=VI>>IV>III>II
- trend in IPM solubility ([2]; IPM): III>IV>VI>II>V
- solubility [2, 8]: 27600 µg/mL (≈ 94.1 mM)
- solubility [2, 9]: > 100000 µg/mL
Structure (SMILES): CCCN(CCC)Cn1cnc2c1c(=O)n(C)c(=O)n2C [IV, 7-(Dipropylamino)methyltheophylline]
- stability in IPM [1]: stable in solution but the IPM insoluble material was theophylline

- half-life [3, 10]: 9.72 min
Structure (SMILES): O=c1nc(NCN2CCOCC2)ccn1CN1CCOCC1 [IXb, Bis-N^4,1-(4'-morpholinyl)methylcytosine hydrate]

Structure (SMILES): Cn1c(=O)c2[nH]cnc2n(C)c1=O [I]
- solubility ([2]; isopropyl myristate, organic solvent or mixture): 95 µg/mL (≈ 0.527 mM)
- solubility ([2]; propylene glycol, organic solvent or mixture): 16200 µg/mL (≈ 89.9 mM)

- qualitative order of stability to atmospheric moisture [1]: V=VI>>IV>III>II
- Solubility, water (apparent) ([2]; 1.0 ml water (pH 7.0) added to 100 mg, sonicated 10 sec, not accurate, rapid decomposition): > 100000 µg/mL
- trend in IPM solubility ([2]; IPM): III>IV>VI>II>V
- solubility [2, 11]: 1300 µg/mL (≈ 4.65 mM)
- solubility [2, 9]: ~100000 µg/mL (≈ 358 mM)
Structure (SMILES): Cn1c(=O)c2c(ncn2CN2CCOCC2)n(C)c1=O [V, 7-(4'-Morpholinyl)methyltheophylline]
- stability in IPM [1]: stable in IPM either in the solid phase or in solution

- qualitative order of stability to atmospheric moisture [1]: V=VI>>IV>III>II
- trend in IPM solubility ([2]; IPM): III>IV>VI>II>V
- solubility [2, 11]: 10700 µg/mL (≈ 40.6 mM)
- solubility [2, 9]: > 100000 µg/mL
Structure (SMILES): Cn1c(=O)c2c(ncn2CN2CCCC2)n(C)c1=O [VI, 7-(Pyrrolidyl)methyltheophylline]
- stability in IPM [1]: stable in IPM either in the solid phase or in solution

- half-life [3, 10]: 1.42 min
Structure (SMILES): O=c1nc(NCN2CCCCC2)ccn1CN1CCCCC1 [VIII, Bis-N^4,1-(1'-piperidinyl)methylcytosine]

- solubility [2, 11]: 11800 µg/mL (≈ 35.9 mM)
- solubility [2, 9]: > 100000 µg/mL
Structure (SMILES): O=c1c(F)cn(CN2CCOCC2)c(=O)n1CN1CCOCC1 [VIII]

- half-life [3, 10]: 1 min
Structure (SMILES): CN(C)CNc1ccn(CN(C)C)c(=O)n1 [X, Bis-N^4,1-(dimethylamino)methylcytosine hydrate]

- half-life [3, 10]: 27.2 min
Structure (SMILES): CN1CCN(CNc2ccn(CN3CCN(C)CC3)c(=O)n2)CC1 [XI, Bis-N^4,1-(4'-methyl-1'-piperazinyl)methylcytosine hydrate]

- solubility [4]: > 100000 µg/mL and > 400000 µM
- solubility at 48 h [4]: 950 µM
- solubility at 48 h ([4]; ±SD): 230 µg/mL
- Kp, steady-state phase [5]: 365 cm/h (× 10^3)
- Kp, initial phase [5]: 149 cm/h (× 10^3)
- pH dependence of hydrolysis rate [3]: hydrolyzed slower at basic pH
- half-life ([3]; pH 6, Half-life of hydrolysis): 0.51 min
- half-life [3, 12]: 0.74 min
- half-life ([3]; pH 8, Half-life of hydrolysis): 0.87 min
Structure (SMILES): CN(C)CNc1nc(=O)n(CN(C)C)cc1F [XIII, Bis-N^4,1-(dimethylamino)methyl-5-fluorocytosine hydrate]

- Solubility, water [4]: 10 mg/ml and 0.03 M
- Solubility, IPM ([4]; ±SD): 5.0 (0.9) mg/ml × 10^2
- Solubility, IPM [4]: 1.6 M(× 10^4)
- Kp, steady-state phase [5]: 1671 cm/h (× 10^3)
- half-life [3, 12]: 0.89 min
Structure (SMILES): O=c1nc(NCN2CCCCC2)c(F)cn1CN1CCCCC1 [XIIa, bis-N^4,1-(1'-piperidinyl)methyl-5-fluorocytosine]

- IPM solubility relative to other compound [4]: twice
- Solubility, water [4]: 25 mg/ml and 0.08 M
- Solubility, IPM ([4]; ±SD): 12.0 (0.5) mg/ml × 10^2
- Solubility, IPM [4]: 3.7 M(× 10^4)
- Kp, steady-state phase [5]: 716 cm/h (× 10^3)
- Kp, initial phase [5]: 174 cm/h (× 10^3)
- Half-life of hydrolysis, 5-FC derivatives ([3]; pH 7.1 phosphate buffer 0.05 M, 24°): 0.90(0.01) min and 0.90 min
- half-life ([3]; pH 6, Half-life of hydrolysis): 0.86 min
- half-life ([3]; pH 8, Half-life of hydrolysis): 0.79 min
Structure (SMILES): O=c1nc(NCN2CCCCC2)c(F)cn1CN1CCCCC1 [XIIb, Bis-N^4,1-(1'-piperidinyl)methyl-5-fluorocytosine]

- IPM solubility relative to other compound [4]: approximately 230 times
- solubility [4]: > 100000 µg/mL and > 300000 µM
- solubility at 48 h [4]: 9100 µM
- solubility at 48 h ([4]; ±SD): 2710 µg/mL
- half-life [3, 12]: 0.1 min
Structure (SMILES): CCN(CC)CNc1nc(=O)n(CN(CC)CC)cc1F [XIV, Bis-N^4,1-(diethylamino)methyl-5-fluorocytosine hydrate]

- solubility [4]: > 100000 µg/mL and > 300000 µM
- solubility at 48 h [4]: 610 µM
- solubility at 48 h ([4]; ±SD): 180 µg/mL
- pH dependence of hydrolysis rate [3]: faster
- half-life ([3]; pH 6, Half-life of hydrolysis): 1.01 min
- half-life [3, 12]: 1.05 min
- half-life ([3]; pH 8, Half-life of hydrolysis): 0.66 min
Structure (SMILES): O=c1nc(NCN2CCCC2)c(F)cn1CN1CCCC1 [XV, Bis-N^4,1-(1'-pyrrolidyl)methyl-5-fluorocytosine hydrate]

- solubility [4]: 25000 µg/mL and 80000 µM
- solubility at 48 h [4]: 350 µM
- solubility at 48 h ([4]; ±SD): 180 µg/mL
- Kp, steady-state phase [5]: 213 cm/h (× 10^3)
- Kp, initial phase [5]: 73.9 cm/h (× 10^3)
- pH dependence of hydrolysis rate [3]: hydrolyzed slower at basic pH
- half-life ([3]; pH 6, Half-life of hydrolysis): 1.19 min
- half-life [3, 12]: 9.1 min
- half-life ([3]; pH 8, Half-life of hydrolysis): 34.2 min
Structure (SMILES): O=c1nc(NCN2CCOCC2)c(F)cn1CN1CCOCC1 [XVI, Bis-N^4,1-(4'-morpholinyl)methyl-5-fluorocytosine hydrate]

- solubility [4]: > 100000 µg/mL and > 300000 µM
- solubility at 48 h [4]: 220 µM
- solubility at 48 h ([4]; ±SD): 71 µg/mL
- Kp, steady-state phase [5]: 919 cm/h (× 10^3)
- Kp, initial phase [5]: 67.3 cm/h (× 10^3)
- pH dependence of hydrolysis rate [3]: hydrolyzed slower at basic pH
- half-life ([3]; pH 6, Half-life of hydrolysis): 20.1 min
- half-life [3, 12]: 26.3 min
- half-life ([3]; pH 8, Half-life of hydrolysis): 28.5 min
Structure (SMILES): CN1CCN(CNc2nc(=O)n(CN3CCN(C)CC3)cc2F)CC1 [XVII, Bis-N^4,1-(4'-methyl-1'piperazinyl)methyl-5-fluorocytosine hydrate]

- X-intercept ([6]; first application in IPM): 1.0 h
- Flux of theophylline from PG after first application ([6]; first application in IPM, Th/PG 0.4 M, ±SD): 192 (38) mg/cm^2 /h × 10^3
- solubility at 48 h [7]: 62 µM
- solubility at 48 h ([7]; ±SD): 28 µg/mL
- solubility ([7]; pH 5.5, water, apparent): 100000 µg/mL and 222000 µM
Structure (SMILES): O=c1nc(NCN2CCCCC2)c(I)cn1[C@H]1C[C@H](O)[C@@H](CO)O1 [XXIIa, N^4-(1"-piperidinyl)methyl-5-iodo-2'-deoxycytidine hydrate]
- effect on flux of theophylline ([6]; vs IPM): Not significantly different from flux after first application
